We go through eight molecules from US9714231B2, “Pyrrolidine GPR40 modulators” (BRISTOL-MYERS SQUIBB COMPANY, priority 2012, dated 2017).

pEC50: −log10 of the molar value. Structures can show the parent of a compound that is named as a salt. Where two headings read alike, the source gives them in different places.

In test [1] the target is T1, human GPR40 (Homo sapiens, UniProt O14842). The experiment in a line: FDSS-based intracellular calcium assay (Human GRP40 in vitro assay). The test is classed as cell-based. The settings on record: cells expressing GPR40, intracellular Ca2+ response, FDSS reader; read-out: hGPR40 EC50. Set-up: 3xFLAG; expressed in transfected cells. In outline: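 GPR40-expressing cells, plated overnight in serum-free phenol red-free DMEM, loaded with Fluo-3 in HBSS with 1.7 mM probenecid for 30 min at 37° C. Compounds in DMSO, diluted in assay buffer, added as 3× solutions; intracellular Ca^2+ response read on FDSS.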
T1 sequence (O14842 whole entry): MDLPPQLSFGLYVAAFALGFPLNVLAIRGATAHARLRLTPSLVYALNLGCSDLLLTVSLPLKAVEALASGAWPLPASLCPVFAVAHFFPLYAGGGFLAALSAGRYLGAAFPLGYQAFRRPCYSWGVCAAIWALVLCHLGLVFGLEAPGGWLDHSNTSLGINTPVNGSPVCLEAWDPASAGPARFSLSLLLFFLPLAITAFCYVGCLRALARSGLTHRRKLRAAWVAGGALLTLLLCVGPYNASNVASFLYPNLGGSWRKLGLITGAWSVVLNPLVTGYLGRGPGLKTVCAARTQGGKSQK

Test [2] addresses T1, human GPR40.

Regarding `CCOc1ccc(F)c(N2CCC(Oc3ccc(N4C[C@H](Cc5cccc(OC)c5)C[C@@H]4CC(=O)O)cc3)CC2)c1` [Example 124, 2-((2R,4R)-1-(4-((1-(5-Ethoxy-2-fluorophenyl)piperidin-4-yl)oxy)phenyl)-4-(3-methoxybenzyl)pyrrolidin-2-yl)acetic acid, TFA], the pEC50 in test [1] was 6.42; in test [2], 7.33.
`COc1cc(N2CCC(Oc3ccc(N4C[C@H](OC)C[C@@H]4CC(=O)O)cn3)C(C)C2)c(Cl)cn1` (stereo partly drawn) [Example 132, 2-((2R,4R)-1-(6-(((3,4-trans)-1-(5-Chloro-2-methoxypyridin-4-yl)-3-methylpiperidin-4-yl)oxy)pyridin-3-yl)-4-methoxypyrrolidin-2-yl)acetic acid]: the pEC50 in test [1] was 6.60; in test [2], 7.26.
Consider `COc1cc(N2CCC(Oc3ccc(N4C[C@H](C(F)(F)F)C[C@@H]4CC(=O)O)cn3)C(C)C2)c(Cl)cn1` (stereo partly drawn) [Example 133, 2-((2R,4R)-1-(6-(((3,4-trans)-1-(5-Chloro-2-methoxypyridin-4-yl)-3-methylpiperidin-4-yl)oxy)pyridin-3-yl)-4-(trifluoromethyl)pyrrolidin-2-yl)acetic acid], for which the negative logarithm of the EC50 (pEC50) in test [1] was 6.42; in test [2], 7.31.
On the same counts, the results for `COc1cc(N2CCC(Oc3ccc(N4C[C@H](C(F)(F)F)C[C@@H]4CC(=O)O)c(F)c3)C(C)C2)c(Cl)cn1` (stereo partly shown) [Example 138] are 6.72 and 7.57.
In the case of `COc1cc(N2CCC(Oc3ccc(N4C[C@H](OC)C[C@@H]4CC(=O)O)c(F)c3)C(C)C2)c(Cl)cn1` (stereo partly drawn) [Example 139, 2-((2R,4R)-1-(4-((3,4-trans)-1-(5-Chloro-2-methoxypyridin-4-yl)-3-methylpiperidin-4-yloxy)-2-fluorophenyl)-4-methoxypyrrolidin-2-yl)acetic acid], the pEC50 in test [1] is 6.64; in test [2], 7.66.
Take `COc1cc(N2CCC(Oc3ccc(N4C[C@H](C(F)(F)F)C[C@@H]4CC(=O)O)c(F)c3F)C(C)C2)c(Cl)cn1` (stereo partly drawn) [Example 140, 2-((2R,4R)-1-(4-((3,4-trans)-1-(5-Chloro-2-methoxypyridin-4-yl)-3-methylpiperidin-4-yloxy)-2,3-difluorophenyl)-4-(trifluoromethyl)pyrrolidin-2-yl)acetic acid]: the pEC50 in test [1] was 6.60; in test [2], 7.14.
In the case of `COc1cc(N2CCC(Oc3ccc(N4C[C@H](OC)C[C@@H]4CC(=O)O)cc3F)C(C)C2)c(Cl)cn1` (stereo partly drawn) [Example 142, 2-((2R,4R)-1-(4-((3,4-trans)-1-(5-Chloro-2-methoxypyridin-4-yl)-3-methylpiperidin-4-yloxy)-3-fluorophenyl)-4-methoxypyrrolidin-2-yl)acetic acid, TFA], the pEC50 in test [1] is 6.57; in test [2] it was 7.51.
On to `COc1cc(N2CCC(Oc3cc(F)c(N4C[C@H](OC)C[C@@H]4CC(=O)O)c(F)c3)C(C)C2)c(Cl)cn1` (stereo partly drawn) [Example 144, 2-((2R,4R)-1-(4-((3,4-trans)-1-(5-Chloro-2-methoxypyridin-4-yl)-3-methylpiperidin-4-yloxy)-2,6-difluorophenyl)-4-methoxypyrrolidin-2-yl)acetic acid, TFA], for which the pEC50 in test [1] is 5.47; in test [2], 5.60.
